# Legend:
# Male SD rats [1] = test: Hypnotic efficacy: loss of righting reflex (LORR) in rats; type: in vivo
# Protocol: The sequential method was used to determine the ED50 (median effective dose) for the loss of righting reflex (LORR) by the compounds of the present disclosure in rats: Male SD rats, weighing 200-300 grams, were used. Each compound was dissolved in normal saline and administered via tail vein injection at an initial dose at a constant injection rate over 10 s (one rat per dose). […] This process was repeated, and the results were recorded in the AOT425 Statpm software until the software could calculate the ED50, at which point the experiment was terminated. The hypnotic efficacy of the compounds of the present disclosure was evaluated using ED50 with lower ED50 values indicating stronger efficacy.
# Comparison of onset time and duration: Male SD rats, weighing 200-300 grams, were used. Each compound was dissolved in normal saline and administered via tail vein injection at a constant injection rate over 10 s, with 10 rats per group. […] The onset time and duration were recorded.
# The onset time refers to the period from the completion of injection to when the rat is placed in a supine position, with the criterion for loss of righting reflex defined as the rat's inability to spontaneously revert to a prone position using its forelimbs and maintained for ≥10 s, which serves as an indicator of compound efficacy; the duration refers to the sustained period during which the rat remains in a state of losing righting reflex. The spontaneous recovery of the righting reflex in the rat is considered the cessation of the efficacy.
# Male SD rats [2] = test: Fluctuations in blood pressure and heart rate after administration; type: in vivo
# Protocol: Male SD rats, weighing 250-300 g, with 4 rats per group, were maintained under general anesthesia by isoflurane inhalation. Femoral artery cannulation was performed, and blood pressure and heart rate were monitored using a Powerlab data acquisition and analysis system. 30 min after the baseline values stabilized, the baseline mean arterial pressure (MAP0) and baseline heart rate (HR0) were measured. The rats were given a solution of each compound in normal saline via tail vein injection (the dose of each compound was the same as in Test Example 3, with rapid intravenous injection over 10 s). Blood pressure and heart rate were continuously recorded for 90 min. MAP^+ (the difference between the maximum mean arterial pressure (MAPmax) and MAP0), MAP^-(the difference between the minimum mean arterial pressure (MAPmin) and MAP0), and HR^- (the difference between the minimum heart rate (HRmin) and HR0) within 90 min were calculated. For calculation, the maximum increase rate of mean arterial pressure = MAP^+/MAP0 × 100%; the maximum decrease rate of mean arterial pressure = MAP^-/MAP0 × 100%; and the maximum decrease rate of heart rate = HR^-/HR0 × 100%.
# [3] = in words, compared with dexmedetomidine hydrochloride, rats
# [4] = loss of righting reflex, male SD rats, tail vein injection, dose twice the ED50, 10 rats per group
# [5] = isoflurane-anesthetized male SD rats, tail vein injection, dose as in Test Example 3
# [6] = isoflurane-anesthetized male SD rats, tail vein injection, dose as in Test Example 3, within 90 min
smiles,measurement,setting,value
"CC(c1c[nH]cn1)c1cccc2c1COC2 (stereo not drawn) [Compound 5, 4-[1-(1,3-Dihydroisobenzofuran-4-yl)ethyl]-1H-imidazole]",ED50,"Male SD rats [1]; Rattus norvegicus, loss of righting reflex, male SD rats, tail vein injection over 10 s, sequential method",0.0625 mg/kg
same,Duration,Male SD rats [1]; [3],significantly shorter
same,hypnotic onset time,Male SD rats [1]; [3],comparable to or slightly longer
same,Duration,Male SD rats [1]; [4],531.10±559.16 S
same,Onset time,Male SD rats [1]; [4],99.20±29.98 S
same,induce sleep in rats,"Male SD rats [1]; time to induce sleep, rats, dose twice the ED50",≤ 5 min
same,maximum decrease rates of HR,Male SD rats [2]; [3],lower
same,maximum increase rates of MAP,Male SD rats [2]; [3],lower
same,recovery of HR,Male SD rats [2]; [3],faster
same,HR decrease Duration,Male SD rats [2]; [5],30 min
same,MAP increase Duration,Male SD rats [2]; [5],2 min
same,HR decrease Maximum decrease rate,Male SD rats [2]; [6],24.7±4.5 %
same,MAP decrease Maximum decrease rate,Male SD rats [2]; [6],7.4±9.2%
same,MAP increase Maximum increase rate,Male SD rats [2]; [6],19.9±6.3%
same,decreases in MAP,"Male SD rats [2]; no significant decreases greater than the stated value, rats",≤ 10%

# Source: patent EP4729516A1, “S[…] DERIVATIVE, INTERMEDIATE, PREPARATION METHOD THEREFOR AND USE THEREOF” (Jiangsu NHWA Pharmaceutical Co., Ltd, priority 2023, dated 2024)
